Reference: PubChem BioAssay AID1417 (Emory University Molecular Libraries Screening Center, 2008)

These molecules were tested against Induced myeloid leukemia cell differentiation protein Mcl-1 (Homo sapiens) (UniProt Q07820) (assay: Mcl-1/Noxa binding inhibitor potency, dose response, biochemical, TR-FRET (AID 1417)). Conditions: Mcl-1/Noxa peptide interaction, cell-free TR-FRET (terbium/rhodamine), 2 h; measured here: absolute IC50.
Chain of Induced myeloid leukemia cell differentiation protein Mcl-1 (Homo sapiens) (Q07820 whole entry, looked up): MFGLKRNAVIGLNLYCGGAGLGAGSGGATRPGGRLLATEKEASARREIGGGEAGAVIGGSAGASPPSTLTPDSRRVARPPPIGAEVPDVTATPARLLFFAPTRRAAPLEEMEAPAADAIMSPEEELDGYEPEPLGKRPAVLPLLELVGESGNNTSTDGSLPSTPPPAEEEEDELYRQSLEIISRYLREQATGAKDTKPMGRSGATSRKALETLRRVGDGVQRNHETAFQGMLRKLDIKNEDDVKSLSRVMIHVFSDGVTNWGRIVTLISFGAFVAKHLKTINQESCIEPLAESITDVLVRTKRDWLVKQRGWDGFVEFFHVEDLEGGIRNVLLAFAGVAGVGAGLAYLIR
In the case of `O=C(O)c1cccc(NC2=C(Cl)C(=O)c3ccccc3C2=O)c1`, the IC50 is reported as 3.79 µM.
`NC(=S)n1[nH]c(-c2ccc([N+](=O)[O-])cc2)c(N=Nc2ccc(Cl)cc2)c1=O` was tested, and the IC50 was < 0.4 µM.
In the case of `CCC1CSC(Nc2ccc(C(=O)/C=C/c3cccc(C)c3)cc2)=N1` (centres undefined), the IC50 is reported as < 0.4 µM.
With `COC(=O)c1ccc2nc(Nc3nc4c(F)cc(F)cc4s3)sc2c1` the IC50 was < 0.4 µM.
For `COc1ccccc1C1NC=C([N+](=O)[O-])C=C1[N+](=O)[O-]` (centres undefined), the IC50 was > 54 µM.
For `N#Cc1c(NC(=O)c2cccc(S(=O)(=O)Nc3ccc(C(=O)O)cc3)c2)sc2c1CCCC2`, the IC50 was 9.51 µM.
With `CCN1C(=O)/C(=C2/Sc3ccc(OC)cc3N2C)SC1=Nc1cccc(O)c1` the IC50 was > 54 µM.
`O=C(CCN1CCN(c2ccccc2)CC1)N/N=C/c1ccc(O)c(O)c1O` was tested, and the IC50 was < 0.4 µM.
With `CN(C)c1ccc(NC(=O)Cn2ncn3c(cc4ccccc43)c2=O)cc1` the IC50 was 3.42 µM.
Molecule `Cc1ccc(N=C2NC(=O)/C(=C/C=C/c3ccco3)S2)cc1C` has an IC50 of 4.62 µM.
Work on `Nc1ccc(O)c2c1C(=O)c1ccccc1C2=O` yielded an IC50 of 1.88 µM.
For `CCCCc1[nH]nc2c1C1(C(=O)N(CC)c3ccccc31)C(C#N)=C(N)O2` (centres undefined), the IC50 was > 54 µM.
`Cc1cc2ncn(/N=C/c3ccc([N+](=O)[O-])s3)c2cc1C` gave an IC50 of 5.32 µM.
For `Oc1ccc(/C=N/n2cc(-c3ccccc3)[nH]c2=S)cc1`, the IC50 was < 0.4 µM.
For `CCC(C)NCCCOc1c(C)cc(C)cc1Br` (centres undefined), the IC50 was > 54 µM.
With `COc1cc2c(ccc3cc(OC)c(OC)c(O)c32)cc1O` the IC50 was < 0.4 µM.
With `Cc1cc(=O)oc2cc(OCc3ccc(C(=O)OCC(=O)Nc4ccc(N(C)C)cc4)cc3)ccc12` the IC50 was < 0.4 µM.
With `CCC1=NNc2cccc3c(OC)ccc1c23` the IC50 was > 54 µM.
With `CN1C=C/C(=C\c2cc[n+](C)c3ccccc23)c2ccccc21` the IC50 was < 0.4 µM.
With `C/C(=C\c1ccco1)C1Nc2cccc3cccc(c23)N1` the IC50 was 3.68 µM.
For `O=C(O)Cc1c[nH]c2cccc(O)c12`, the IC50 was 0.81 µM.
Work on `Cc1ccc2nc(N3C(=O)C(O)=C(C(=O)c4cc5ccccc5o4)C3c3cccs3)sc2c1` (centres undefined) yielded an IC50 of 1.22 µM.
`S=C(NNc1ccnc2cc(Cl)ccc12)Nc1ccc(Cl)cc1Cl` showed an IC50 of 6.37 µM.
In the case of `Oc1ccc(Br)cc1-c1cc(-c2ccc(Cl)cc2)n[nH]1`, the IC50 is reported as 1.68 µM.
With `COc1ccc(/C=C2\C(=O)NC(=S)N2C(=O)c2ccc(C)cc2)cc1` the IC50 was > 54 µM.
In the case of `CC(/C=C/c1ccco1)=N/NC(=O)Cc1cccs1`, the IC50 is reported as 4.32 µM.
Work on `Cc1ccc(/C=c2\sc3nc(-c4ccco4)nn3c2=O)o1` yielded an IC50 of 6.14 µM.
With `CCCc1ccc(/C=C2\C(=O)c3ccccc3C(O)=C2C(=O)OCC)cc1` the IC50 was > 54 µM.
With `COc1ccc(N2CCC(CNC(=O)Nc3ccc(C)c(C)c3)C2)cc1` (centres undefined) the IC50 was > 54 µM.
`Cc1cc(NS(=O)(=O)c2ccc(Nc3nc(-c4sc(NC(=O)c5ccccc5)nc4C)cs3)cc2)no1` showed an IC50 of 1.77 µM.
Work on `Cc1cc(C(=O)OCC(=O)Nc2sc3c(c2C#N)CCC(C)C3)c2ccccc2n1` (centres undefined) yielded an IC50 of 4.27 µM.
With `CC(=O)c1cc(C#N)c(SCc2ccccn2)nc1C` the IC50 was > 54 µM.
`O=C(Nc1ccccc1Cl)c1cnccn1` was tested, and the IC50 was > 54 µM.
With `Cc1cccc(NC(=O)CSc2nnc(-c3ccco3)c(-c3ccco3)n2)c1` the IC50 was 6.58 µM.
Work on `Fc1cccc(NC(=S)NNc2c3ccccc3nc3ccccc23)c1` yielded an IC50 of 3.31 µM.
`COc1ccc(C(=O)Nc2nc3c(s2)Cc2cc(OC)ccc2-3)cc1` was tested, and the IC50 was 4.11 µM.
In the case of `COc1ccc(Cc2nnc(NC(=O)Cc3cccs3)s2)cc1OC`, the IC50 is reported as 1.05 µM.
Work on `O=C(NN1C(=O)/C(=C/C=C/c2ccco2)SC1=S)c1ccccc1O` yielded an IC50 of 1.01 µM.
With `O=[N+]([O-])c1cccc(S(=O)(=O)Nc2nc3ccccc3nc2Nc2cccc(S(=O)(=O)N3CCCCC3)c2)c1` the IC50 was 3.75 µM.
With `COc1ccc(N2C(=O)C3CCCN3C2=O)cc1` (centres undefined) the IC50 was > 54 µM.
`O=C(N/N=C/c1ccc(O)cc1)c1cccc(N/N=C/c2ccc(O)cc2)c1` gave an IC50 of 2.05 µM.
`O=[N+]([O-])c1ccc(-c2c[nH]c(=S)[nH]2)cc1` showed an IC50 of 0.8 µM.
`O=C(Nc1ccc(Cl)cc1)Nc1nnc(/C=C/c2ccccc2)s1` was tested, and the IC50 was 4.06 µM.
In the case of `CCCCN(CC)CCNc1c(N2CCN(C(=O)OCC)CC2)c(=O)c1=O`, the IC50 is reported as 2.17 µM.
With `CCN(CC)c1ccc(NC(=O)c2ccccc2OCC(=O)OC)cc1` the IC50 was > 54 µM.
With `Cc1cc(NC(=O)CSc2nc(-c3ccc(F)cc3)cs2)no1` the IC50 was > 54 µM.
In the case of `Cc1nc2ccc(NC(=O)c3cc([N+](=O)[O-])cc([N+](=O)[O-])c3Cl)cc2s1`, the IC50 is reported as 1.3 µM.
With `CC1(C)CC(=O)C(C=Nc2cccc(/N=C/C3=C(O)CC(C)(C)CC3=O)n2)=C(O)C1` the IC50 was > 54 µM.
In the case of `O=C(CSc1ccsc1[N+](=O)[O-])Nc1cccc(F)c1`, the IC50 is reported as 2.61 µM.
`CCN(c1ccc(NC(=O)COC(=O)c2ccc(C)c(S(=O)(=O)N3CCOCC3)c2)cc1)C(C)C` was tested, and the IC50 was > 54 µM.
`N#C/C(=C/c1ccc(OCc2ccc(C(=O)O)cc2)c(Br)c1)c1cccc(F)c1` was tested, and the IC50 was < 0.4 µM.
For `O=C(Nc1ccc2nc(-c3ccc4nc[nH]c4c3)[nH]c2c1)c1cccs1`, the IC50 was 2.7 µM.
Work on `O=C(/C=C/c1ccccc1)c1ccc(NC2=NCCCS2)cc1` yielded an IC50 of 6.52 µM.
With `O=C1NC(=S)N(c2ccc(F)cc2)C(=O)/C1=C\c1ccoc1` the IC50 was < 0.4 µM.
`O=C(Nc1ccccc1)c1ccc2nc(-c3ccco3)c(-c3ccco3)nc2c1` gave an IC50 of 3.83 µM.
`CNc1ccc(Br)cc(C(=O)/C=C/c2cccc(OC)c2)c1=O` showed an IC50 of 4.9 µM.
`COc1cccc2c(C)c(C(=O)O)[nH]c12` gave an IC50 of 2 µM.
Molecule `COC(=O)C1=Nc2ccccc2/C1=C\c1c(O)n(-c2ccc(Br)cc2)c(=O)[nH]c1=O` has an IC50 of 7.49 µM.
`CCOC(=O)c1sc(NC(=O)Nc2ccc(Cl)cc2)cc1C` gave an IC50 of 4.11 µM.
With `O=C(CSc1nnc(-c2ccco2)c(-c2ccco2)n1)Nc1ccccc1` the IC50 was 2.92 µM.
`O=C1NC(=Nc2ccccc2)S/C1=C\C=C\c1ccco1` was tested, and the IC50 was < 0.4 µM.
`O=C(N/N=C/c1ccncc1)c1cc([N+](=O)[O-])cc([N+](=O)[O-])c1O` gave an IC50 of 2.49 µM.
`Cc1ccc(S(=O)(=O)C(CCC(=O)N2CCOCC2)S(=O)(=O)c2ccc(C)cc2)cc1` was tested, and the IC50 was > 54 µM.
With `O=C(Nc1ccc2nc3ccccc3nc2c1)c1ccccc1` the IC50 was 29.6 µM.
For `Cc1ccc2c(c1Cl)NC(C(=O)O)C1CC(Sc3ccccc3[N+](=O)[O-])C(Cl)C21` (centres undefined), the IC50 was 2.52 µM.
With `Oc1c(Cl)cc(Cl)c(Cl)c1Cc1c(O)c(Cl)cc(Cl)c1Cl` the IC50 was < 0.4 µM.
`O=C1CSC(=S)N1/N=C/c1ccc(O)c([N+](=O)[O-])c1` gave an IC50 of 1.39 µM.
With `Cc1cccc(NC(=O)CSc2nnc(-c3ccco3)c(-c3ccco3)n2)c1C` the IC50 was 6.47 µM.
With `CCN(CC)c1ccc(NC2=C(Cl)C(=O)c3ccccc3C2=O)cc1` the IC50 was < 0.4 µM.
`Cc1ccc(C2=NC(=O)/C(=C/c3cc(O)c(O)c(Br)c3)S2)cc1` was tested, and the IC50 was < 0.4 µM.
For `CC(/C=N/NC(=O)c1cc(-c2ccc3ccccc3c2)n[nH]1)=C\c1ccco1`, the IC50 was 4.91 µM.
In the case of `COc1ccc(/C=C/C(=O)NC(=S)Nc2cc([N+](=O)[O-])ccc2O)cc1OC`, the IC50 is reported as 1.12 µM.
In the case of `Cc1nnc(Sc2cc(NCCO)c([N+](=O)[O-])c3nonc23)s1`, the IC50 is reported as < 0.4 µM.
With `CC(=O)N1CCc2cc(S(=O)(=O)NC(Cc3ccccc3)C(=O)NC3CCCCCC3)ccc21` (centres undefined) the IC50 was > 54 µM.
With `O=C1C(Cl)=C(Nc2ccc3cn[nH]c3c2)C(=O)c2ccccc21` the IC50 was < 0.4 µM.
`COc1cccc(NS(=O)(=O)c2ccc3c(c2)C2C=CCC2C(c2ccc(C(=O)O)cc2)N3)c1` (centres undefined) was tested, and the IC50 was 1.02 µM.
Molecule `CCn1nc([N+](=O)[O-])c(C(C#N)c2nc3cc(C(F)(F)F)ccc3s2)c(Cl)c1=O` (centres undefined) has an IC50 of 3.15 µM.
For `CN(C)c1ccc(C(CNC(=O)c2ccc(C#N)cc2)c2c[nH]c3ccccc23)cc1` (centres undefined), the IC50 was > 54 µM.
Molecule `CCNc1ccc(Br)cc(C(=O)/C=C/c2ccc(Cl)cc2)c1=O` has an IC50 of 2.03 µM.
In the case of `Nc1ccc(-c2nc3cc([N+](=O)[O-])ccc3o2)cc1`, the IC50 is reported as 7.16 µM.
`Nc1cc(C(=O)O)c(N)c2c1C(=O)c1ccccc1C2=O` was tested, and the IC50 was < 0.4 µM.
With `c1ccc(CN=C2NN=C(c3cc4ccccc4o3)CS2)cc1` the IC50 was > 54 µM.
In the case of `Oc1ccc(/C=N/Nc2ccnc3cc(Cl)ccc23)c(O)c1`, the IC50 is reported as < 0.4 µM.
`O=C(CSc1nnc(-c2ccco2)c(-c2ccco2)n1)c1ccccc1` showed an IC50 of 3.7 µM.
`O=C1OC(c2cccs2)=N/C1=C/c1ccc(-c2cccc(C(=O)O)c2)o1` was tested, and the IC50 was > 54 µM.
`COc1cc(/C=C2\SC(=S)NC2=O)ccc1OS(=O)(=O)c1ccccc1` was tested, and the IC50 was 1.97 µM.
With `CCOC(=O)CSc1nc(N)c(C(=O)Nc2ccc(N(C)C)cc2)s1` the IC50 was 0.523 µM.
In the case of `CC(/C=C1\SC(=S)N(CCCC(=O)Nc2ccc(C(=O)O)c(O)c2)C1=O)=C\c1ccccc1`, the IC50 is reported as < 0.4 µM.
`COc1ccccc1NC(=O)C(=O)N/N=C/c1ccc([N+](=O)[O-])s1` gave an IC50 of 6.17 µM.
With `CCC(C)(C)n1nnnc1C(c1ccc(O)c(OC)c1)N1CCc2ccccc2C1` (centres undefined) the IC50 was < 0.4 µM.
With `Nc1c(C(=O)NC2CC2)sc2nc3c(c(-c4ccco4)c12)CC/C3=C/c1ccco1` the IC50 was < 0.4 µM.
`Cc1ccc(N2C(=O)NC(=O)/C(=C\c3cnc(-c4ccccc4)nc3)C2=O)cc1` showed an IC50 of 20.2 µM.
Work on `O=C(Nc1nc(-c2ccco2)c(-c2ccco2)s1)C1CC(=O)N(c2ccc3c(c2)OCCO3)C1` (centres undefined) yielded an IC50 of 5.49 µM.
With `C=CCc1cccc2cc(C(=O)Nc3ccc(S(=O)(=O)Nc4nnc(CC)s4)cc3)c(=O)oc12` the IC50 was 1.54 µM.
`CN1CCN(CCCN2c3ccccc3Sc3ccc(Cl)cc32)CC1` was tested, and the IC50 was 4.06 µM.
Work on `Oc1c(Cl)cc(Cl)cc1Sc1cc(Cl)cc(Cl)c1O` yielded an IC50 of 1.64 µM.
With `O=S(=O)(Cc1cc(Cl)nc(-c2ccncc2)n1)c1ccccc1` the IC50 was 24.8 µM.
`COc1ccc(NC(=O)c2cc3cccc(OC)c3oc2=Nc2ccc(C(=O)O)cc2)cc1OC` was tested, and the IC50 was 2.38 µM.
For `O=C(CSc1nc2ccccc2s1)Nc1cc(S(=O)(=O)N2CCOCC2)ccc1O`, the IC50 was 0.722 µM.
`COCCN=c1scc(-c2ccco2)n1/N=C/c1ccc(O)c(O)c1O` was tested, and the IC50 was < 0.4 µM.
For `Cc1n[nH]c(=S)n(NC(=O)/C=C/C(=O)Nn2c(=S)[nH]nc(C)c2=O)c1=O`, the IC50 was < 0.4 µM.
In the case of `Cc1ccc(N=Nc2c(N)[nH]n3c(=O)cc(-c4ccccc4)nc23)cc1`, the IC50 is reported as 14 µM.
With `O=C(N/N=C/c1cccc(F)c1)c1cc(-c2ccco2)nc2ccccc12` the IC50 was < 0.4 µM.
For `Oc1c(/C=N/c2ccccn2)sc2ccccc12`, the IC50 was < 0.4 µM.
`COc1ccc(Cl)c(N2CCN(CCCNC(=O)Nc3ccc(C)cc3)CC2)c1` showed an IC50 of 6.02 µM.
`COc1ccc(-c2ccc(/C=N/NC(=O)c3cccnc3)o2)c([N+](=O)[O-])c1` showed an IC50 of 4.32 µM.
With `Cc1ccccc1C(=O)Nc1nc(-c2cccnc2)cs1` the IC50 was < 0.4 µM.
With `CCN(CCO)c1nc(SC)nc2c1sc1nc(-c3ccco3)c3c(c12)CCC3` the IC50 was < 0.4 µM.
In the case of `COc1ccc(N2C(=O)/C(=C/C=C/c3ccccc3[N+](=O)[O-])C(=O)NC2=S)cc1`, the IC50 is reported as < 0.4 µM.
